From US20240279338A1, “Combination Treatment of Cancer” (Ares Trading S.A., priority 2021, published 2024)

Tests used:
4T1 cells = experiment: CD73hi adenosine-rich 4T1 syngeneic tumor model, tumor growth; format: in vivo; settings: 4T1, female BALB/c mice; Day 13 post treatment initiation; Compound A 300 mg/kg po bid; bintrafusp alfa 24.6 mg/kg iv days 0, 3, 6
Description: Female BALB/c mice were inoculated with 5×10^4 4T1 cells into the right mammary fat pad and were treated with Compound A (300 mg/kg po, bid), bintrafusp alfa (24.6 mg/kg iv, days 0, 3, 6), Compound A+bintrafusp alfa, when average tumor volume reached approximately 60 mm^3. Vehicle (po, bid) and isotype control antibody injections (20 mg/kg iv, days 0, 3, 6) were used as controls. (A) Average tumor volumes with SEM, and (B) individual tumor volumes are presented. Tumor volume data were analyzed using two-way ANOVA followed by Tukey's multiple comparison test.
To determine whether combined treatment with the dual A2A/A2B receptor inhibitor “Compound A” ((S)-7-Oxa-2-aza-spiro[4.5]decane-2-carboxylic acid [7-(3,6-dihydro-2H-pyran-4-yl)-4-methoxy-thiazolo[4,5-c]pyridin-2-yl]-amide) and bintrafusp alfa can inhibit tumor growth in either CD73^hi or CD73^low models, tumor growth was monitored in […] syngeneic tumor models. Animals were inoculated with either CD73^hi tumor cells (4T1, E0771, or EMT6) or with CD73^low MC38, H22 or MBT2 tumor cells. For all tumor models, animals were treated with either 1) vehicle and isotype, 2) Compound A and isotype, 3) vehicle and bintrafusp alfa, or 4) Compound A and bintrafusp alfa. […]

E0771 cells = experiment: CD73hi E0771 syngeneic tumor model, tumor growth; format: in vivo, mice; settings: for tumor growth inhibition, T/C: E0771, female C57BL/6 mice, Day 18 post treatment initiation
Description: Female C57BL/6 mice were inoculated with 1.5×10^5 E0771 cells into the right mammary fat pad and were treated with Compound A (300 mg/kg po, BID), bintrafusp alfa (8.2 mg/kg iv, days 0, 3, 6), Compound A+bintrafusp alfa, when average tumor volume reached approximately 75 mm^3. Vehicle (po, BID) and isotype control antibody injections (6.65 mg/kg iv, days 0, 3, 6) were used as controls. (A) Average tumor volumes with SEM, and (B) individual tumor volumes are presented. Tumor volume data were analyzed using two-way ANOVA followed by Tukey's multiple comparison test.
To determine whether combined treatment with the dual A2A/A2B receptor inhibitor “Compound A” ((S)-7-Oxa-2-aza-spiro[4.5]decane-2-carboxylic acid [7-(3,6-dihydro-2H-pyran-4-yl)-4-methoxy-thiazolo[4,5-c]pyridin-2-yl]-amide) and bintrafusp alfa can inhibit tumor growth in either CD73^hi or CD73^low models, tumor growth was monitored in […] syngeneic tumor models. Animals were inoculated with either CD73^hi tumor cells (4T1, E0771, or EMT6) or with CD73^low MC38, H22 or MBT2 tumor cells. For all tumor models, animals were treated with either 1) vehicle and isotype, 2) Compound A and isotype, 3) vehicle and bintrafusp alfa, or 4) Compound A and bintrafusp alfa.
In the third CD73^hi tumor model, female C57BL/6 mice were inoculated with 1.5×10^5 E0771 cells into the right mammary fat pad and were randomized into treatment groups when average tumor volume reached approximately 75 mm^3. […] Thus, to test its combination potential with Compound A in this model we had to reduce the dose for bintrafusp alfa from 24 mg/kg (iv, days 0, 3, and 6) down to 8.2 mg/kg (iv, days 0, 3, 6). Thus, E0771 tumor-bearing mice were treated with Compound A (300 mg/kg po, BID), bintrafusp alfa (8.2 mg/kg iv, days 0, 3, 6), Compound A+bintrafusp alfa starting the day 0 (when they were randomized into treatment groups). Vehicle (po, BID) and isotype control antibody injections (6.65 mg/kg iv, days 0, 3, 6) were used as controls.

[1] = system: human T cells co-cultured with MDA-MB-231 tumor cells; experiment: Rescue of IFNγ secretion from EBV-specific human T cells co-cultured with MDA-MB-231 tumor cells in presence of NECA; format: cell-based; settings: Compound A 100 nM; bintrafusp alfa 1 μg/ml; 10 μM NECA; 74 hours of co-culture; T cells:tumor cells 0.5:1; ELISA
Description: Then 10 μM NECA was added to the corresponding groups and 1.3×10^4 of T cells in 100 μl volume were transferred per well of 96-well flat bottom plate with 2.6×10^4 cells/well of MDA-MB-231 tumor cells pre-loaded with EBV peptide (30 ng/ml, […], 21st Century) in 100 μl of RPM11640 media, supplemented with 10% FBS. The final ratio for T cells:MDA-MB-231 tumor cells=0.5:1. Cell culture supernatants were collected after 74 hours of co-culture, and IFNγ levels were measured using human IFNγ ELISA Kit (R&D Systems) according to manufacturer instructions. The percentage of IFNγ secretion rescue was calculated using following formula: 100%−(IFNγ in samples treated with NECA and Compound A alone or combination with bintrafusp alfa minus IFNγ in control sample)[…](IFNγ in samples with NECA minus IFNγ in control sample)*100%. Representative graph with the results shown as average of three samples per treatment group±SEM. P-values are calculated using one-way ANOVA Tukey comparison test. […]
Briefly, MDA-MB-231 tumor cells were seeded to the flat bottom 96-well plate at 2.6×10^4 cells/well (in 100 μl of RPMI1640 media, supplemented with 10% FBS) and loaded with EBV peptide (30 ng/ml, […], 21st Century). […] Cell culture supernatants were collected after 74 hours of co-culture, and IFNγ levels were measured using human IFNγ ELISA Kit (R&D Systems) according to manufacturer instructions. […]

[2] = Compound A 300 mg/kg po BID, bintrafusp alfa 8.2 mg/kg iv days 0, 3, 6

Row | Molecule | tumor growth inhibition, T/C (4T1 cells) [%] | tumor growth inhibition, T/C (E0771 cells; [2]) [%] | sensitivity of the tumor model (E0771 cells; E0771, bintrafusp alfa original dose 24.6 mg/kg iv days 0, 3, and 6) | rescue of IFNγ secretion [1] | mice with CR (complete responses) (E0771 cells; E0771, Compound A 300 mg/kg po BID, bintrafusp alfa 8.2 mg/kg iv days 0, 3, 6)
1 | bintrafusp alfa: anti-PD-L1:TGFβRII fusion protein, CAS 1918149-01-5; human IgG1 antibody against PD-L1 fused to extracellular domain of human TGF-β receptor II | 86.2 | 65.7 | high sensitivity | ~24% | 
2 | COc1ncc(C2=CCOCC2)c2sc(NC(=O)N3CC[C@@]4(CCCOC4)C3)nc12 [Compound A, (S)-7-Oxa-2-aza-spiro[4.5]decane-2-carboxylic acid [7-(3,6-dihydro-2H-pyran-4-yl)-4-methoxy-thiazolo[4,5-c]pyridin-2-yl]-amide] | 68.5 | 72.9 |  | approx. 71% | 1
